What was measured:
[1] = tested on: barnyardgrass; assay: Test B pre-/postemergence herbicide test; type: in vivo, Echinochloa crus-galli; conditions: for Barnyardgrass plant response rating: postemergence
Outline: (§1)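 Formulation: non-phytotoxic solvent mix with surfactant. Timing: preemergence on seed and postemergence on 2–18 cm plants, applied concurrently. Readout after 13–15 d greenhouse: visual 0–100 control rating against controls.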

[2] = tested on: Surinam grass; assay: Test B pre-/postemergence herbicide test; type: in vivo, Urochloa decumbens; conditions: for Surinam Grass plant response rating: scale 0 (no effect) to 100 (complete control)
Outline: (§2)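 Visual rating, 0 (no effect) to 100 (complete control), versus untreated controls after 13–15 d in greenhouse. Pre- and postemergence applications (postemergence plants 2–18 cm, 1–4 leaves); flooded paddy arm at 2-leaf stage. Compounds in non-phytotoxic solvent plus surfactant.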

[3] = tested on: cocklebur; assay: Test B pre-/postemergence herbicide test; type: in vivo, Xanthium strumarium; conditions: for Cocklebur plant response rating: postemergence
Outline: as §1

[4] = tested on: corn; assay: Test B pre-/postemergence herbicide test; type: in vivo, Zea mays; conditions: for Corn plant response rating: postemergence
Outline: as §2

[5] = tested on: large crabgrass; assay: Test B pre-/postemergence herbicide test; type: in vivo, Digitaria sanguinalis; conditions: for Crabgrass, Large plant response rating: postemergence
Outline: as §2

[6] = tested on: giant foxtail; assay: Test B pre-/postemergence herbicide test; type: in vivo, Setaria faberi; conditions: for Foxtail, Giant plant response rating: postemergence
Outline: as §2

[7] = tested on: lambsquarters; assay: Test B pre-/postemergence herbicide test; type: in vivo, Chenopodium album; conditions: for Lambsquarters plant response rating: scale 0 (no effect) to 100 (complete control)
Outline: as §2

[8] = tested on: morningglory; assay: Test B pre-/postemergence herbicide test; type: in vivo, Ipomoea coccinea; conditions: for Morningglory plant response rating: scale 0 (no effect) to 100 (complete control)
Outline: as §1

[9] = tested on: pigweed; assay: Test B pre-/postemergence herbicide test; type: in vivo, Amaranthus retroflexus; conditions: for Pigweed plant response rating: scale 0 (no effect) to 100 (complete control)
Outline: as §2

[10] = tested on: velvetleaf; assay: Test B pre-/postemergence herbicide test; type: in vivo, Abutilon theophrasti; conditions: for Velvetleaf plant response rating: scale 0 (no effect) to 100 (complete control)
Outline: as §2

[11] = tested on: wheat; assay: Test B postemergence herbicide test; type: in vivo, Triticum aestivum; parameters: key to Wheat plant response rating: 0 = no effect, 100 = complete control
Outline: (§3)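 Each value is a visual 0–100 response rating taken against controls 13 to 15 days after treatment in the greenhouse. Plants received formulated chemical postemergence at the 1- to 4-leaf stage or, in flooded paddy, at the 2-leaf stage.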

[12] = tested on: wild oat; assay: Test B postemergence herbicide test; type: in vivo, Avena fatua; conditions: scale 0 (no effect) to 100 (complete control)
Outline: as §3

[13] = tested on: rice; assay: Test B flooded paddy test; type: in vivo, Oryza sativa; conditions: 1000 g ai/ha, scale 0 to 100 (0 no effect, 100 complete control)
Outline: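 Read-out: visual comparison with controls, scored 0 to 100, where 100 means complete control and 0 no effect. Formulated chemicals were applied postemergence to plants 2–18 cm tall (1- to 4-leaf), or to flooded-paddy plants at the 2-leaf stage, then held 13 to 15 days under glass.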

[14] = tested on: ducksalad; assay: Test B flooded paddy test; type: in vivo, Heteranthera limosa; conditions: 1000 g ai/ha, scale 0 to 100 (0 no effect, 100 complete control)
Outline: (§4)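 Scale 0–100: zero equals no visible effect, 100 complete control, judged by eye relative to controls. Timing: 13 to 15 days in greenhouse post-treatment. Growth stage at spraying: two leaves (paddy) or one to four leaves, 2–18 cm (postemergence).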

[15] = tested on: barnyardgrass; assay: Test B flooded paddy test; type: in vivo, Echinochloa crus-galli; conditions: 1000 g ai/ha, scale 0 to 100 (0 no effect, 100 complete control)
Outline: as §4

[16] = 125 g ai/ha, 0 is no effect, 100 is complete control, preemergence
[17] = 125 g ai/ha, visual rating, scale 0 (no effect) to 100 (complete control)
[18] = 500 g ai/ha, scale 0 to 100, 0 is no effect, 100 is complete control
[19] = 125 g ai/ha, visual rating, postemergence

CCc1nn(C(C)C)nc1C(=O)Nc1cccc(C(=O)N2CCCCC2)c1 [Compound 385]
Plant response rating (0 to 100 scale), Barnyardgrass [1, 16]: 80 | Barnyardgrass plant response rating [1, 17]: 0 | Barnyardgrass plant response rating [1, 18]: 10 | Plant response rating (0 to 100 scale), Surinam Grass [2, 16]: 80 | Surinam Grass plant response rating [2, 19]: 0 | Surinam Grass plant response rating ([2]; Postemergence, 500 g ai/ha): 20 | Plant response rating (0 to 100 scale), Cocklebur [3, 16]: 0 | Cocklebur plant response rating [3, 17]: 20 | Cocklebur plant response rating [3, 18]: 50 | Plant response rating (0 to 100 scale), Corn [4, 16]: 30 | Corn plant response rating [4, 17]: 10 | Corn plant response rating [4, 18]: 10 | Plant response rating (0 to 100 scale), Crabgrass, Large [5, 16]: 90 | Crabgrass, Large plant response rating [5, 17]: 0 | Crabgrass, Large plant response rating [5, 18]: 20 | Plant response rating (0 to 100 scale), Foxtail, Giant [6, 16]: 30 | Foxtail, Giant plant response rating [6, 17]: 10 | Foxtail, Giant plant response rating [6, 18]: 20 | Plant response rating (0 to 100 scale), Lambsquarters [7, 16]: 90 | Lambsquarters plant response rating [7, 19]: 50 | Lambsquarters plant response rating ([7]; Postemergence, 500 g ai/ha): 60 | Plant response rating (0 to 100 scale), Morningglory [8, 16]: 20 | Morningglory plant response rating [8, 19]: 30 | Morningglory plant response rating ([8]; Postemergence, 500 g ai/ha): 80 | Plant response rating (0 to 100 scale), Pigweed [9, 16]: 70 | Pigweed plant response rating [9, 19]: 50 | Pigweed plant response rating ([9]; Postemergence, 500 g ai/ha): 60 | Plant response rating (0 to 100 scale), Velvetleaf [10, 16]: 60 | Velvetleaf plant response rating [10, 19]: 20 | Velvetleaf plant response rating ([10]; Postemergence, 500 g ai/ha): 20 | Wheat plant response rating ([11]; 125 g ai/ha, visual rating, scale 0 (no effect) to 100 (complete control), postemergence): 0 | Wheat plant response rating ([11]; 500 g ai/ha, scale 0 to 100, 0 no effect, 100 complete control, preemergence): 80 | Wheat plant response rating ([11]; Postemergence, 500 g ai/ha, scale 0 (no effect) to 100 (complete control)): 10 | Oat, Wild plant response rating [12, 19]: 0 | Oat, Wild plant response rating ([12]; Postemergence, 500 g ai/ha): 20 | Rice plant response rating [13]: 80 | Ducksalad plant response rating [14]: 80 | Barnyardgrass plant response rating [15]: 80

From patent US20060069132A1, “Azolecarboxamide herbicides” (priority 2004, published 2006)
